Assay results: US20240084237A1, “A DEVICE HAVING A SUPPORT STRUCTURE FOR CREATING A HOLLOW, THREE-DIMENSIONAL ORGANOIDS AND CULTURES” (The Trustees of Indiana University, priority 2021, published 2024)

Tested on: iMG incorporated into the hollow organoid culture
Assay: neural inflammation model: iMG incorporated into hollow (tubular) brain organoid culture, drug treatment
Assay type: cell-based, human
Conditions: for response of iMG incorporated into the hollow organoid culture to external stimulation: recapitulating the in vivo phenotype and functions during neural inflammation, LPS 100 ng/mL 24 hours followed by ATP 2 mM 30 minutes, DAMGO 100 nM 24 hours
Protocol: To differentiate WA01 cells into microglia, WA01 cells were plated onto Matrigel (Corning) coated 6-well plate at a density of 30-40 colonies per well. The WA01 cells were then differentiated into hematopoietic progenitor cells (HPC) using STEMdiff hematopoietic kit (Stemcell Technologies). The differentiated WA01 derived HPC was then further differentiated into induced microglia (iMG) cells using STEMdiff Microglia Differentiation kit (Stemcell Technologies).
To treat microglia cultured in well plates or microglia embedded in hFO, lipopolysaccharide (LPS) (Sigma) is dosed at 100 ng/mL for 24 hours followed by Adenosine 5′-triphosphate (ATP) (Sigma) at a concentration of 2 mM for 30 minutes. Similarly, DAMGO was given at a concentration of 100 nM for 24 hours. For LY-2828360 (Cayman Chemicals) treatment, microglia treated with DAMGO for 24 hours was refreshed with a medium containing 100 nM LY-2828360 for an additional 24 hours.
To visualize inflammasome activation inside microglia cells, we analyzed NLRP3/ASC colocalization by proximity ligation assay (PLA). Samples were subject to NLRP3/ASC staining following by colocalization PLA using the Duolink in situ red kit (Sigma). After the PLA labeling, samples were then additionally labeled by Iba1/MAP2 before coverslipped with Prolong gold anti-fade DAPI mounting medium (Thermo Fisher) and visualized under an inverted fluorescence microscope (Olympus IX-83).
Conditioned medium of 24 hours (total volume 500 μL) from control conditions or drug-treated conditions were collected from microglia cultured in 24 well plates or incorporated inside tubular organoids. The medium was centrifuged at 2,000 g for 10 minutes to remove cell debris. 400 μL of supernatant was then aspirated and used for ELISA assays. Samples were assayed using ELISA plates for IL-1β (Tribioscience), IL-18 (Tribioscience), and TNF-α (Abcam). Each sample was tested in triplicates and read at 450 nm for absorbance.

Row | Compound | response of iMG incorporated into the hollow organoid culture to external stimulation | response of the neural inflammation model to treatment (therapeutics screening) (100 nM for additional 24 hours after DAMGO 24 hours)
1 | lipopolysaccharide [LPS] | can respond | 
2 | Cc1nc(N2CCN(C)CC2)c2nc(-c3ccccc3Cl)n(C3CCOCC3)c2n1 [LY282860] |  | evident responses
3 | C[C@@H](NC(=O)[C@@H](N)Cc1ccc(O)cc1)C(=O)NCC(=O)N(C)[C@@H](Cc1ccccc1)C(=O)NCCO [DAMGO] | can respond | 
